Experimental findings from patent publication US20240181068A1, “SELECTIVE NEUTRAL PH INHIBITOR OF CATHEPSIN B” (The Regents of the University of California, priority 2021, published 2024) are described below.

Holding throughout (format): biochemical
One assay has as its target cathepsin X (Homo sapiens, UniProt Q9UBR2). Description: Specificity of inhibitors: cathepsin X (MCA peptide substrate). The protocol:
(§1) Specificity of inhibitors for other cysteine cathepsin proteases. The effects of Z-Arg-Lys-AOMK and Z-Glu-Lys-AOMK on cathepsin V, L, K, S, X, H and C activities were assessed. IC50 values were calculated at pH 4.6 and pH 7.2 conditions, consisting of 40 mM citrate phosphate, 1 mM EDTA, 100 mM NaCl, and 5 mM DTT. The inhibitor concentrations ranged from 16.38 μM to 256 nM with 2-fold serial dilutions. […] Cathepsin V (0.04 ng/μL), cathepsin L (0.03 ng/μL), cathepsin K (0.10 ng/μL), cathepsin S (0.20 ng/uL) were assayed with 40 μM Z-Phe-Arg-AMC. Cathepsin X (0.20 ng/uL), cathepsin C (0.51 ng/uL) and cathepsin H (0.1 ng/μL) were assayed with 40 μM of MCA-Arg-Pro-Pro-Gly-Phe-Ser-Ala-Phe-Lys(Dnp)OH (SEQ ID NO: 2), Gly-Arg-AMC, and Arg-AMC, respectively. Activation of pro-cathepsin H to cathepsin H was conducted by incubation of cathepsin H (4.4 ng/μL) with cathepsin L (1.1 ng/μL) at RT for 2 hrs in activation buffer (20 mM citrate phosphate pH 6.0, 100 mM NaCl, and 5 mM DTT). Cathepsin C (13.78 ng/μL) was activated by incubation with cathepsin L (3.4 ng/μL) at RT for one hr in activation buffer (20 mM citrate phosphate, pH 6.0, 100 mM NaCl, 5 mM DTT). […] For all assays containing peptide-AMC substrates the fluorescent microplate reader settings were the same as outlined above for cathepsin B. For the cathepsin X assay, the plate reader was set to excitation 320 nm, emission 400 nm, gain 105, top optics and read height 1 mm. To convert RFU/s to picomol/min, 10 μM to 0.005 μM (2-fold serial dilution) of MCA-Arg-Pro-Pro-Gly-Phe-Ser-Ala-Phe-Lys(Dnp)OH (SEQ ID NO: 2) was fully hydrolyzed with excess cathepsin X and a standard curve was generated using the total fluorescence values calculated at each concentration.

In another assay the target is T1, cathepsin L (Homo sapiens, UniProt P07711).
T1 construct: purchased R&D Systems 952-CY-010
Description: Specificity of inhibitors: cathepsin L (Z-Phe-Arg-AMC substrate). The protocol:
as §1

Another assay deals with T2, cathepsin V (Homo sapiens, UniProt O60911).
T2 construct: purchased R&D Systems 1080-CY-010
The experiment in a line: Specificity of inhibitors: cathepsin V (Z-Phe-Arg-AMC substrate). The protocol:
as §1

In a further assay the target is T3, cathepsin K (Homo sapiens, UniProt P43235).
T3 construct: purchased Abcam ab157067
T3 sequence (P43235 115-329): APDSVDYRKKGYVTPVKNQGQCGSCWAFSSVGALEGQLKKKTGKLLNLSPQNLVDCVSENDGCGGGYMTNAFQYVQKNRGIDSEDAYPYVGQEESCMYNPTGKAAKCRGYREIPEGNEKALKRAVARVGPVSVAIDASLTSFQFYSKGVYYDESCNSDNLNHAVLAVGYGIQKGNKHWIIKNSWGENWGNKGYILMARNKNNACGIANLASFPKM
The experiment in a line: Specificity of inhibitors: cathepsin K (Z-Phe-Arg-AMC substrate). The protocol: as §1

A further assay addresses T4, cathepsin B (Homo sapiens, UniProt P07858).
T4 construct: purchased R&D Systems 953-CY-010
The experiment in a line: Irreversible mechanism of inhibitors (pre-incubation, dilution, activity). Particulars: pH 7.2. The protocol: Irreversible mechanism of inhibitors. The irreversible or reversible mechanism of cathepsin B inhibition was assessed for Z-Arg-Lys-AOMK and Z-Glu-Lys-AOMK inhibitors. At pH 7.2, cathepsin B was incubated with 190 nM Z-Arg-Lys-AOMK and 4.99 μM Z-Glu-Lys-AOMK for 15 min in pH 7.2 assay buffer and the assay was performed as described above for pH 4.6. Proteolytic activity was monitored for 2 hr. At pH 4.6, cathepsin B (activated, 3.7 ng/μL) was incubated with 4.24 μM Z-Arg-Lys-AOMK and 3.48 μM Z-Glu-Lys-AOMK for 15 min in 40 mM citrate phosphate pH 4.6, 1 mM EDTA, 100 mM NaCl, and 5 mM DTT; a vehicle control contained 2.5% DMSO. Each reaction was then diluted 100-fold in assay buffer such that the final assay composition was 0.04 ng/μL cathepsin B, 40 μM Z-Phe-Arg-AMC, and an inhibitor concentration of 1/10th the IC50 value.

cathepsin X, sequence (Q9UBR2 62-303): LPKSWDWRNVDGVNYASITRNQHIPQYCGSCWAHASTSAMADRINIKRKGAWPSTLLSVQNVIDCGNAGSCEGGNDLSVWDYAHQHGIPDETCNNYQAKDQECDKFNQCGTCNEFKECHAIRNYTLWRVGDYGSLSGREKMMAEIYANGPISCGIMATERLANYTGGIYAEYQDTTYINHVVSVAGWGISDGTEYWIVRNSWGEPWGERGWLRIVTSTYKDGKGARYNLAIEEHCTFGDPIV
T1 sequence (P07711 114-333): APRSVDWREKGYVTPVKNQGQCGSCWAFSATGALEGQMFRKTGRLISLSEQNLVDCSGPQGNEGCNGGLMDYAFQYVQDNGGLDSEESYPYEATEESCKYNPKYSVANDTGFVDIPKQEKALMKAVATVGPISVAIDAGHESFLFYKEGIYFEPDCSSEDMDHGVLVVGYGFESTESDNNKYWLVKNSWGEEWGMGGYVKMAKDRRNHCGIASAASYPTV
T2 sequence (O60911 114-334): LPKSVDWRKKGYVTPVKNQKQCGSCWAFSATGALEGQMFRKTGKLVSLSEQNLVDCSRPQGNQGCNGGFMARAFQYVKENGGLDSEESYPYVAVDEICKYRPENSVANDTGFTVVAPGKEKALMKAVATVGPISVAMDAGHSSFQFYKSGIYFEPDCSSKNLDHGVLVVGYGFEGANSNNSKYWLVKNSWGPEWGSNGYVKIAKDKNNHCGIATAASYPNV

As a reminder, the IC50 is the concentration that inhibits the measured activity by half. Read a high IC50 as weaker potency in that assay. As a reminder, the inhibition is the change of the read-out against control, counted positive when it falls. Read a low inhibition as little suppression. In the case of `Cc1cccc(C)c1C(=O)OCC(=O)C(CCCCN)NC(=O)C(CCCNC(=N)N)NC(=O)OCc1ccccc1` (stereo not drawn) [Z-Arg-Lys-AOMK], the IC50 was more than 16 µM against cathepsin X (cathepsin X, pH 4.6); more than 16 µM at cathepsin L (cathepsin L, pH 4.6); more than 16 µM against cathepsin V (cathepsin V, pH 4.6); 0.44 µM at cathepsin V (cathepsin V, pH 7.2); more than 16 µM against cathepsin K (cathepsin K, pH 4.6); more than 16 µM against cathepsin K (cathepsin K, pH 7.2). The inhibition at 16 µM at cathepsin X (cathepsin X, pH 4.6, 16,000 nM inhibitor) came to 21%; at cathepsin L (cathepsin L, pH 4.6, 16,000 nM inhibitor), 32%; at cathepsin V (cathepsin V, pH 4.6, 16,000 nM inhibitor) it was 63%; against cathepsin K (cathepsin K, pH 7.2, 16,000 nM inhibitor), 31%. Besides, the “inhibition of cathepsin X” value on cathepsin X (pH 4.6, inhibitor at 16 μM) was “minimal inhibition”. Further, the “inhibition of cathepsin L” value on cathepsin L (pH 4.6, inhibitor at 16 μM) is given as “minimal inhibition”. Besides, the “inhibition of cathepsin V” value at cathepsin V (pH 4.6, inhibitor at 16 μM) is given as “minimal inhibition”. The “fold more potent for cathepsin B than cathepsin V” value on cathepsin V (pH 7.2, from IC50) came out at 22 fold. Besides, the “inhibition of cathepsin K” value is reported as “no inhibition” on cathepsin K (pH 4.6, inhibitor at 16 μM) and “minimally inhibited” against cathepsin K (pH 7.2, inhibitor at 16 μM). Besides, the “cathepsin B activity after pre-incubation and dilution of inhibitor” value on cathepsin B was “no cathepsin B activity”.
